Where a name gives a salt, the structure may show the parent alone.
System: NMDA receptor
Settings: effect blocked by a specific NMDA-site antagonist and a glycine-site antagonist; cited from earlier work

| Compound | post synaptic current driven by the NMDA receptor |
| --- | --- |
| CN(CCC(Oc1ccc(-c2ccccc2)cc1)c1ccc(F)cc1)CC(=O)O (stereo not shown) [NFPS] | increased the post synaptic current driven by the NMDA receptor |

System: not given
Settings: not given

| Compound | melting point [°C] |
| --- | --- |
| Cc1ccc(C(=O)c2ccc(OC(CCN(C)CC(=O)O)c3ccc(F)cc3)cc2)nc1 (stereo not shown) | 55 to 65 |
| CN(CCC(Oc1ccc(C(=O)c2cc(C(F)(F)F)cc(C(F)(F)F)c2)cc1)c1ccc(F)cc1)CC(=O)O (stereo not shown) | 60 to 75 |
| CN(CCC(Oc1ccc(C(=O)c2nccs2)cc1)c1ccc(Cl)cc1)CC(=O)O (stereo not shown) | 80 to 100 |
| CN(CCC(Oc1ccc(C(=O)c2ccncc2)cc1)c1ccc(Cl)cc1)CC(=O)O (stereo not shown) | 72 to 82 |
| CN(CCC(Oc1cccc(C(=O)c2ccncc2)c1)c1ccc(F)cc1)CC(=O)O (stereo not shown) | 60 to 70 |
| CN(CCC(Oc1cccc(C(=O)c2ccncc2)c1)c1ccc(Cl)cc1)CC(=O)O (stereo not shown) | 68 to 78 |
| CN(CCC(Oc1ccc(C(=O)c2ccc3ccccc3c2)cc1)c1ccccc1)CC(=O)O (stereo not shown) (as salt: salt) | 77 to 89 |
| CN(CCC(Oc1ccc(C(=O)c2ccc(C(F)(F)F)cc2)cc1)c1ccccc1)CC(=O)O (stereo not shown) (as salt: salt) | 65 to 83 |
| Cc1ccc(C(=O)c2ccc(OC(CCN(C)CC(=O)O)c3ccccc3)cc2)cc1 (stereo not shown) (as salt: salt) | 85 to 95 |
| CN(CCC(Oc1ccc(C(=O)c2ccc(F)cc2)cc1)c1ccccc1)CC(=O)O (stereo not shown) (as salt: salt) | 65 to 83 |
| Cc1ccc(C(=O)c2ccc(OC(CCN(C)CC(=O)O)c3ccc(F)cc3)cc2)cc1 (stereo not shown) (as salt: salt) | 60 to 70 |
| CN(CCC(Oc1ccc(C(=O)c2ccc(Cl)cc2)cc1)c1ccc(F)cc1)CC(=O)O (stereo not shown) (as salt: salt) | 71 to 85 |
| CN(CCC(Oc1ccc(C(=O)c2ccc(C(F)(F)F)cc2)cc1)c1ccc(F)cc1)CC(=O)O (stereo not shown) (as salt: salt) | 58 to 72 |
| COc1ccc(C(=O)c2ccc(OC(CCN(C)CC(=O)O)c3ccc(F)cc3)cc2)cc1 (stereo not shown) (as salt: salt) | 75 to 85 |
| CN(CCC(Oc1ccc(C(=O)c2ccc3ccccc3c2)cc1)c1ccc(F)cc1)CC(=O)O (stereo not shown) (as salt: salt) | 87 to 97 |
| CN(CCC(Oc1ccc(C(=O)c2cccc3ccccc23)cc1)c1ccc(F)cc1)CC(=O)O (stereo not shown) (as salt: salt) | 91 to 100 |
| Cc1cccc(C(=O)c2ccc(OC(CCN(C)CC(=O)O)c3ccc(F)cc3)cc2)c1C (stereo not shown) (as salt: salt) | 83 to 93 |
| CN(CCC(Oc1ccc(C(=O)c2ccccc2F)cc1)c1ccc(F)cc1)CC(=O)O (stereo not shown) (as salt: salt) | 65 to 75 |
| CN(CCC(Oc1ccc(C(=O)c2ccc(F)cc2F)cc1)c1ccc(F)cc1)CC(=O)O (stereo not shown) (as salt: salt) | 65 to 75 |
| Cc1cccc(C(=O)c2ccc(OC(CCN(C)CC(=O)O)c3ccc(F)cc3)cc2)c1 (stereo not shown) (as salt: salt) | 75 to 85 |
| CN(CCC(Oc1ccc(C(=O)c2ccsc2)cc1)c1ccc(F)cc1)CC(=O)O (stereo not shown) (as salt: salt) | 65 to 75 |

| Compound | melting point [°C] |
| --- | --- |
| CN(CCC(Oc1ccc(C(=O)c2cc3ccccc3s2)cc1)c1ccc(F)cc1)CC(=O)O (stereo not shown) (as salt: salt) | 90 to 100 |
| CN(CCC(Oc1ccc(C(=O)c2ccccn2)cc1)c1ccc(F)cc1)CC(=O)O (stereo not shown) (as salt: salt) | 68 to 80 |
| CN(CCC(Oc1ccc(C(=O)c2nccs2)cc1)c1ccc(F)cc1)CC(=O)O (stereo not shown) (as salt: salt) | 98 to 108 |
| Cc1cnc(C(=O)c2ccc(OC(CCN(C)CC(=O)O)c3ccc(F)cc3)cc2)s1 (stereo not shown) (as salt: salt) | 95 to 110 |
| CN(CCC(Oc1ccc(C(=O)c2nc3ccccc3s2)cc1)c1ccc(F)cc1)CC(=O)O (stereo not shown) (as salt: salt) | 105 to 111 |
| Cc1ccc(C(=O)c2ccc(OC(CCN(C)CC(=O)O)c3ccc(Cl)cc3)cc2)cc1 (stereo not shown) (as salt: salt) | 65 to 71 |
| COc1ccc(C(=O)c2ccc(OC(CCN(C)CC(=O)O)c3ccc(Cl)cc3)cc2)cc1 (stereo not shown) (as salt: salt) | 60 to 70 |
| CN(CCC(Oc1ccc(C(=O)c2ccc(Cl)cc2)cc1)c1ccc(Cl)cc1)CC(=O)O (stereo not shown) (as salt: salt) | 63 to 68 |
| CN(CCC(Oc1ccc(C(=O)c2ccc(C(F)(F)F)cc2)cc1)c1ccc(Cl)cc1)CC(=O)O (stereo not shown) (as salt: salt) | 63 to 70 |
| Cc1cccnc1C(=O)c1ccc(OC(CCN(C)CC(=O)O)c2ccc(F)cc2)cc1 (stereo not shown) (as salt: salt) | 65 to 73 |
| CN(CCC(Oc1ccc(C(=O)c2ccccc2F)cc1)c1ccc(Cl)cc1)CC(=O)O (stereo not shown) (as salt: salt) | 75 to 85 |
| CN(CCC(Oc1ccc(C(=O)c2ccc(F)cc2F)cc1)c1ccc(Cl)cc1)CC(=O)O (stereo not shown) (as salt: salt) | 75 to 85 |
| Cc1cccc(C(=O)c2ccc(OC(CCN(C)CC(=O)O)c3ccc(Cl)cc3)cc2)c1C (stereo not shown) (as salt: salt) | 85 to 93 |
| CN(CCC(Oc1ccc(C(=O)c2ccsc2)cc1)c1ccc(Cl)cc1)CC(=O)O (stereo not shown) (as salt: salt) | 91 to 110 |
| CN(CCC(Oc1ccc(C(=O)c2cc3ccccc3s2)cc1)c1ccc(Cl)cc1)CC(=O)O (stereo not shown) (as salt: salt) | 101 to 112 |
| CN(CCC(Oc1ccc(C(=O)c2ccncc2)cc1)c1ccc(F)cc1)CC(=O)O (stereo not shown) (as salt: salt) | 52 to 65 |
| Cc1cnc(C(=O)c2ccc(OC(CCN(C)CC(=O)O)c3ccc(Cl)cc3)cc2)s1 (stereo not shown) (as salt: salt) | 182 to 192 |
| CC(C)c1ccc(C(=O)c2ccc(OC(CCN(C)CC(=O)O)c3ccc(F)cc3)cc2)cc1 (stereo not shown) (as salt: salt) | 70 to 80 |
| CN(CCC(Oc1ccc(C(=O)c2c(F)cccc2F)cc1)c1ccc(F)cc1)CC(=O)O (stereo not shown) (as salt: salt) | 77 to 87 |
| CN(CCC(Oc1ccc(C(=O)c2ccccc2)cc1)c1ccc(F)cc1)CC(=O)O (stereo not shown) (as salt: salt) | 80 to 95 |
| CN(CCC(Oc1ccc(S(=O)(=O)c2ccccc2)cc1)c1ccccc1)CC(=O)O (stereo not shown) (as salt: salt) | 95 to 100 |

From US6506780B2, “Benzophenones and sulfones as inhibitors of glycine uptake” (Pfizer Inc., priority 2000, dated 2003)
